Experimental data as given in patent US20240335445A1, “Compounds and Compositions for Treating Fibrosis” (YALE UNIVERSITY, priority 2017, published 2024).

Experiments:
Type in all cases: biochemical
[1] = biological target: T1, MKP5 (Homo sapiens, UniProt Q9Y6W6); test: MKP-5 Malachite Green phosphate assay with dual phosphorylated peptide pTpY; settings: for inhibition at 12.5 µM: read-out: % inhibition of MKP-5
T1 sequence (Q9Y6W6 1-482): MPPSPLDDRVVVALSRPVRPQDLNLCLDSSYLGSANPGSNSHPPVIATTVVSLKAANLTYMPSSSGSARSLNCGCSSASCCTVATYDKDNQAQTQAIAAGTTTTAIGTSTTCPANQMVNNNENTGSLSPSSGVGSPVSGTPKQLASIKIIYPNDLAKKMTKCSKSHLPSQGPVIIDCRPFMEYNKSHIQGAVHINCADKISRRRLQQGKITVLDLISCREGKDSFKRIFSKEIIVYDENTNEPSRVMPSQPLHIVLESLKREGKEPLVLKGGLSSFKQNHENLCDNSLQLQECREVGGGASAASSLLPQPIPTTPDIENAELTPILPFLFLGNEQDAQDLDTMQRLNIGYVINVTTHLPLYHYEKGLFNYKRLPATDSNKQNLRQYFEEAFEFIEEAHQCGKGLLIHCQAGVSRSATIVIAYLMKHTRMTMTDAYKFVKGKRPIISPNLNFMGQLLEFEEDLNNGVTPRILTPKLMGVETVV
From the text: In a non-limiting example, the assay comprises contacting a peptide comprising the sequence pThr-Gly-pTyr, the polypeptide comprising and/or consisting of the catalytic domain of MKP-5 (such as but not limited to residues 305-482 of SEQ ID NO:4), or an active fragment thereof, and the test compound. If the test compound is a MKP-5 inhibitor, it will inhibit the dephosphorylation of the peptide comprising the sequence pThr-Gly-pTyr. If the test compound is not a MKP-5 inhibitor, it will not inhibit the dephosphorylation of the peptide comprising the sequence pThr-Gly-pTyr. Dephosphorylation of that peptide can be evaluated qualitatively and/or quantitatively using any methods known in the art, such as but not limited to a Malachite Green Phosphate Assay. This assay provides a fast, reproducible, colorimetric method for measuring inorganic free phosphate in aqueous solutions. The assay method is based on the formation of a complex between malachite green molybdate and free orthophosphate that absorbs at 620-640 nm. This assay is a reliable and suitable means of detecting and quantifying minimal amounts of inorganic free phosphate and is amenable to high-throughput screening applications.
Compounds from the pilot collection consisting of Microsource GenPlus, Microsource Natural Product, NIH Clinical collections, ChemBridge DIVERSet, ChemBridge MicroFormats, Maybridge Diversity, and ChemBridge Amines and Alcohols were screened. Assay conditions were 1.5 μM MKP-5 and 25 μM dual phosphorylated peptide DDE (Nle) (pT) G (pY) VATR (10 μL total volume), incubated for 30 minutes at 37° C. followed by addition of 40 μL Malachite Green reagent. Z′ values are ˜0.7-0.8. Malachite green reagent was made by combining 30 mL 0.045% Malachite Green (Sigma #M-9636) with 20 mL 4.2% ammonium molybdate in 4 M HCl, shaking for at least 30 mins and adding 0.01% Tween 20.

[2] = biological target: T1, MKP5; test: MKP5 pNPP assay
[3] = biological target: T1, MKP5; test: MKP5 EZReader assay with fluorescent mono-phosphorylated peptides
[4] = biological target: T1, MKP5; test: MKP-5 inhibition, assay not specified; settings: read-out: IC50 against MKP-5
[5] = Kd (M) MKP5 EZREader fluor pT_Y, substrate fluor pT_Y (SEQ ID NO: 2)
[6] = Kd (M) MKP5 EZReader fluor_TpY, substrate fluor_TpY (SEQ ID NO: 1)

Structure (SMILES) | inhibition at 12.5 µM [1] [%] | Kd [1] [µM] | Kd [2] [µM] | Kd [3, 5] [M] | Kd [3, 6] [M] | IC50 [4] [µM]
CC(=O)N1Cc2cnc(SCC(=O)C(C)(C)C)nc2-c2ccccc21 [YU241659] | 12 | – | – | – | – | –
O=C(O)c1ccc(C2Nc3c(-c4ccccc4)cccc3C3C=CCC32)cc1 (centres unmarked) [YU119284] | – | > 100 | > 200 | > 0.0002 | > 0.0002 | –
O=c1cc2oc3cc(O)c(O)cc3c(-c3ccc([N+](=O)[O-])o3)c-2cc1O [YU109017] | – | > 100 | > 100 | 1.56e-05 | 1.03e-05 | –
CC(C)(C)C(=O)CSc1ncc2c(n1)-c1ccsc1CC2 [YU252252] | 37 | – | – | – | – | –
CSc1scc2c1-c1nc(SCC(=O)C(C)(C)C)ncc1CC2 [YU032149, 3,3-dimethyl-1-((9-(methylthio)-5,6-dihydrothieno[3,4-h]quinazolin-2-yl)thio)butan-2-one] | – | 6.25 | 4.23 | 1.13e-05 | 1.75e-05 | ~12
Cc1ccc(C)n1-c1ccc(C(=O)O)c(O)c1 [YU129641] | – | > 100 | > 200 | 1.41e-05 | 1.04e-05 | –
CC(C)(C)C(=O)CSc1ncc2cnc3ccccc3c2n1 [YU241658] | 15 | – | – | – | – | –
